Test system: carragenin induced edema
Assay: carragenin induced edema test in rats (antiinflammatory activity)
Assay type: in vivo
Conditions: per os; for decrease of the induced edema over the controls: dose levels ranging from about 20 to about 50 mg/kg; for decrease of the induced edema: 100 mg/kg
Procedure: The compounds of the invention display excellent pharmacological properties; more particularly they are active essentially as antiinflammatories and as prostaglandin synthetase inhibitors. The antiinflammatory activity was investigated through the "carragenin induced edema" test in rats, which was performed following substantially the operative schema proposed by C.A. Winter et al. in Proc. Soc. Expl. Biol. Med., 111, 544, 1962.
It must be noted that a percent decrease of the edema of 30 is absolutely significative from the pharmacological standpoint. Moreover when administered per os at 100 mg/kg the compounds of examples 3 and 7 caused a decrease of the induced edema of about 55%. These very favorable antiinflammatory properties are coupled with a low toxicity, being the LD50 of the compounds of the invention always higher than 500 mg/kg p.o. in mice. Toxicities were determined substantially according to the method described by Lichtfield and Wilcoxon in Journ. Pharm. Expt. Ther., 96, 99 1949.

CCn1c(-c2ccccc2)c2[nH]c(=O)nc(-c3ccccc3)c2c1C [Example 6, 6-Ethyl-5-methyl-4,7-diphenyl-6H-pyrrolo[3,4-d]pyrimidine-2(1H)-one]
decrease of the induced edema over the controls: at least 30%

CCn1c(C)c2c(-c3ccccc3)nc(=O)n(CC)c2c1-c1ccccc1 [Example 7, 1,6-Diethyl-5-methyl-4,7-diphenyl-6H-pyrrolo[3,4-d]pyrimidine-2(1H)-one]
decrease of the induced edema: about 55%
decrease of the induced edema over the controls: at least 30%

CCn1c(-c2ccccc2)c2c(C)nc(-c3ccccc3)c-2[nH]c1=O.Cl [Example 3, 3-Ethyl-5-methyl-4,7-diphenyl-1H-pyrrolo[3,4-d]pyrimidine-2(3H)-one hydrochloride]
decrease of the induced edema: about 55%
decrease of the induced edema over the controls: at least 30%

Reference: patent publication US3993650A, “Pyrrolo [3,4-d] pyrimidines” (Gruppo Lepetit S.p.A., priority 1975, dated 1976)
